The nature of the test: Sensory evaluation of sweetness linger and taste by expert panel. The settings on record: scale 0-5. Further details: key: 0=no sweetness linger; 1=very slight sweetness linger; 2 slight sweetness linger; 3=moderate sweetness linger; 4=moderately high sweetness linger; 5=high sweetness linger. Here is the method:
In a particular embodiment, a panel of assessors is used to measure the reduction of sweetness linger. Briefly described, a panel of assessors (generally 8 to 12 individuals) is trained to evaluate sweetness perception and measure sweetness at several time points from when the sample is initially taken into the mouth until 3 minutes after it has been expectorated. […] A decrease in score for a time point measured after the sample has cleared the mouth indicates there has been a reduction in sweetness perception.
The panel of assessors may be trained using procedures well known to those of ordinary skill in the art. In a particular embodiment, the panel of assessors may be trained using the Spectrum™ Descriptive Analysis Method (Meilgaard et al, Sensory Evaluation Techniques, 3rd edition, Chapter 11). Desirably, the focus of training should be the recognition of and the measure of the basic tastes; specifically, sweet. In order to ensure accuracy and reproducibility of results, each assessor should repeat the measure of the reduction of sweetness linger about three to about five times per sample, taking at least a five minute break between each repetition and/or sample and rinsing well with water to clear the mouth.
Generally, the method of measuring sweetness comprises taking a 10 mL sample into the mouth, holding the sample in the mouth for 5 seconds and gently swirling the sample in the mouth, rating the sweetness intensity perceived at 5 seconds, expectorating the sample (without swallowing following expectorating the sample), rinsing with one mouthful of water (e.g., vigorously moving water in mouth as if with mouth wash) and expectorating the rinse water, rating the sweetness intensity perceived immediately upon expectorating the rinse water, waiting 45 seconds and, while waiting those 45 seconds, identifying the time of maximum perceived sweetness intensity and rating the sweetness intensity at that time (moving the mouth normally and swallowing as needed), rating the sweetness intensity after another 10 seconds, rating the sweetness intensity after another 60 seconds (cumulative 120 seconds after rinse), and rating the sweetness intensity after still another 60 seconds (cumulative 180 seconds after rinse). Between samples take a 5 minute break, rinsing well with water to clear the mouth.
Sensory evaluation of the samples prepared in Example Set G was carried out under the following protocol, similar to that described hereinabove. In this test protocol, none of the samples were swallowed. […] Immediately upon sensing maximal sweetness, the sample was expectorated, the mouth was rinsed with water and the rate of sweetness decay (“Sweetness Linger”) was measured, where attention was focused on the sweetness 3-4 min after the water rinse. […]

[1] abbreviates: Example Set G, citric acid/potassium citrate composition equivalent to diet lemon-lime beverage, sweetness 3-4 min after water rinse.
[2] abbreviates: Example Set H, carbon-treated water with phosphoric acid (75%), pH 2.4-2.5.

As to `OC[C@H]1O[C@@](CO)(O[C@H]2O[C@H](CO)[C@@H](O)[C@H](O)[C@H]2O)[C@@H](O)[C@@H]1O` [sugar, sucrose], the Sweetness linger reads like this: under setting [1], 0; under setting [2], 0.
Regarding rebaudioside A, the Sweetness linger reads like this: under setting [1], 5; under setting [2], 5.

These data come from US8945652B2, “High-potency sweetener for weight management and compositions sweetened therewith” (The Coca-Cola Company, priority 2005, dated 2015).
